The source made the active and inactive calls. No cut-off for these calls is given here.

The test system of data set [1] is AGS. The data set is described as follows: Inhibition of TRAIL-resistance in human AGS cells assessed as inhibition of cell viability at 30 uM incubated for 24 hrs in presence of 100 ng/ml TRAIL by FMCA method relative to TRAIL alone. It is filed as functional.
For data set [2], the system named is AGS. In words: Inhibition of TRAIL-resistance in human AGS cells assessed as inhibition of cell viability at 10 uM incubated for 24 hrs in presence of 100 ng/ml TRAIL by FMCA method relative to TRAIL alone. It is filed as functional.
Data set [3] has as its system AGS. In words: Inhibition of TRAIL-resistance in human AGS cells assessed as inhibition of cell viability at 20 uM incubated for 24 hrs in presence of 100 ng/ml TRAIL by FMCA method relative to TRAIL alone. It counts as functional.
For data set [4], the system named is AGS. The data set is described as follows: Increase in DR4 protein expression in human AGS cells incubated for 24 hrs by Western blotting method. It is filed as functional, cell-based.
The test system of data set [5] is AGS. In words: Increase in DR5 protein expression in human AGS cells incubated for 24 hrs by Western blotting method. It counts as functional, cell-based.
Data set [6] relates to AGS. In words: Increase in caspase-3 protein expression in human AGS cells incubated for 24 hrs by Western blotting method. It counts as functional, cell-based.
Data set [7] relates to AGS. In words: Increase in cleaved caspase-8 protein expression in human AGS cells at 8 uM incubated for 24 hrs in presence of 100 ng/ml TRAIL by Western blotting method relative to TRAIL alone. It is filed as functional.
In data set [8] the test system is AGS. The data set is described as follows: Increase in caspase-3 protein expression in human AGS cells at 8 uM incubated for 24 hrs in presence of 100 ng/ml TRAIL by Western blotting method relative to TRAIL alone. It counts as functional.
The subject of data set [9] is MCF7. The data set is described as follows: Inhibition of TRAIL-resistance in human MCF7 cells assessed as inhibition of cell viability at 4 to 12 uM incubated for 24 hrs in presence of 100 ng/ml TRAIL by FMCA method relative to TRAIL alone. It is filed as functional, cell-based.
In data set [10] the test system is AGS. The data set is described as follows: Inhibition of TRAIL-resistance in human AGS cells assessed as inhibition of cell viability at 12 uM incubated for 24 hrs in presence of 100 ng/ml TRAIL by FMCA method relative to TRAIL alone. It is filed as functional.
Data set [11] deals with DU-145. In words: Inhibition of TRAIL-resistance in human DU145 cells assessed as inhibition of cell viability at 4 to 12 uM incubated for 24 hrs in presence of 100 ng/ml TRAIL by FMCA method relative to TRAIL alone. It is filed as functional, cell-based.
In data set [12] the test system is AGS. The data set is described as follows: Increase in cleaved caspase-8 protein expression in human AGS cells at 8 uM incubated for 24 hrs in presence of 100 ng/ml TRAIL by Western blotting method. It is filed as functional.
Data set [13] deals with AGS. In words: Increase in cleaved caspase-9 protein expression in human AGS cells at 4 to 12 uM s by Western blotting method. It is filed as functional, cell-based.
Data set [14] concerns AGS. The data set is described as follows: Increase in cleaved caspase-9 protein expression in human AGS cells at 8 uM incubated for 24 hrs in presence of 100 ng/ml TRAIL by Western blotting method. It is filed as functional.
Data set [15] has as its system AGS. In words: Inhibition of TRAIL-resistance in human AGS cells assessed as inhibition of cell viability at 4 uM incubated for 24 hrs in presence of 100 ng/ml TRAIL by FMCA method relative to TRAIL alone. It is filed as functional.
The subject of data set [16] is AGS. In words: Inhibition of TRAIL-resistance in human AGS cells assessed as inhibition of cell viability at 8 uM incubated for 24 hrs in presence of 100 ng/ml TRAIL by FMCA method relative to TRAIL alone. It is filed as functional.
The subject of data set [17] is HeLa. In words: Inhibition of TRAIL-resistance in human HeLa cells assessed as inhibition of cell viability at 4 to 12 uM incubated for 24 hrs in presence of 100 ng/ml TRAIL by FMCA method relative to TRAIL alone. It is filed as functional, cell-based.
In data set [18] the test system is AGS. The data set is described as follows: Increase in DR5 protein expression in human AGS cells at 8 uM incubated for 3 to 12 hrs by Western blotting method. It is filed as functional, cell-based. The conditions noted are these: TDE = time-dependent effect.
The test system of data set [19] is AGS. In words: Increase in DR4 protein expression in human AGS cells at 8 uM incubated for 3 to 12 hrs by Western blotting method. It counts as functional, cell-based. To be noted: TDE = time-dependent effect.
Data set [20] relates to AGS. The data set is described as follows: Increase in cleaved caspase-8 protein expression in human AGS cells incubated for 24 hrs by Western blotting method. It counts as functional, cell-based.
The subject of data set [21] is HEK293. The data set is described as follows: Inhibition of TRAIL-resistance in HEK293 cells assessed as inhibition of cell viability at 4 to 8 uM incubated for 24 hrs in presence of 100 ng/ml TRAIL by FMCA method relative to TRAIL alone. To be noted: human, hek293, 24 h. It is filed as cell-based.
Data set [22] has as its system AGS. The data set is described as follows: Decrease in Bcl2 protein expression in human AGS cells incubated for 24 hrs by Western blotting method. It counts as functional, cell-based.
For data set [23], the system named is AGS. In words: Increase in caspase-3 protein expression in human AGS cells at 8 uM incubated for 24 hrs in presence of 100 ng/ml TRAIL by Western blotting method. It counts as functional.
Data set [24] concerns DLD-1. The data set is described as follows: Inhibition of TRAIL-resistance in human DLD1 cells assessed as inhibition of cell viability at 4 to 12 uM incubated for 24 hrs in presence of 100 ng/ml TRAIL by FMCA method relative to TRAIL alone. It is filed as functional, cell-based.
For data set [25], the system named is AGS. In words: Increase in p53 protein expression in human AGS cells incubated for 24 hrs by Western blotting method. It is filed as functional, cell-based.
Data set [26] concerns AGS. In words: Increase in cleaved caspase-8 protein expression in human AGS cells at 8 uM incubated for 24 hrs by Western blotting method. It counts as functional.
In data set [27] the test system is AGS. In words: Increase in CHOP protein expression in human AGS cells incubated for 24 hrs by Western blotting method. It is filed as functional, cell-based.
Data set [28] concerns AGS. In words: Increase in caspase-3 protein expression in human AGS cells at 8 uM incubated for 24 hrs by Western blotting method. It counts as functional.
Data set [29] relates to AGS. In words: Increase in cleaved caspase-9 protein expression in human AGS cells at 8 uM incubated for 24 hrs by Western blotting method. It is filed as functional.
Data set [30] deals with AGS. In words: Increase in Bax protein expression in human AGS cells at incubated for 24 hrs by Western blotting method. It counts as functional, cell-based.
Data set [31] relates to AGS. The data set is described as follows: Increase in cleaved caspase-9 protein expression in human AGS cells at 8 uM incubated for 24 hrs in presence of 100 ng/ml TRAIL by Western blotting method relative to TRAIL alone. It is filed as functional.
The test system of data set [32] is AGS. The data set is described as follows: Increase in cleaved caspase-9 protein expression in human AGS cells at 16 uM incubated for 24 hrs by Western blotting method. It counts as functional.
Data set [33] has as its system AGS. In words: Increase in cleaved caspase-8 protein expression in human AGS cells at 16 uM incubated for 24 hrs in presence of 100 ng/ml TRAIL by Western blotting method relative to TRAIL alone. It counts as functional.
Data set [34] has as its system AGS. In words: Increase in cleaved caspase-3 protein expression in human AGS cells at 16 uM incubated for 24 hrs by Western blotting method. It counts as functional.
Data set [35] concerns AGS. The data set is described as follows: Increase in cleaved caspase-8 protein expression in human AGS cells at 16 uM incubated for 24 hrs in presence of 100 ng/ml TRAIL by Western blotting method. It counts as functional.
Data set [36] concerns AGS. In words: Inhibition of TRAIL-resistance in human AGS cells assessed as inhibition of cell viability at 16 uM incubated for 24 hrs in presence of 100 ng/ml TRAIL by FMCA method relative to TRAIL alone. It counts as functional.
The test system of data set [37] is AGS. In words: Increase in cleaved caspase-9 protein expression in human AGS cells at 16 uM incubated for 24 hrs in presence of 100 ng/ml TRAIL by Western blotting method relative to TRAIL alone. It counts as functional.
Data set [38] deals with AGS. In words: Increase in cleaved caspase-3 protein expression in human AGS cells at 16 uM incubated for 24 hrs in presence of 100 ng/ml TRAIL by Western blotting method relative to TRAIL alone. It counts as functional.
Data set [39] concerns AGS. In words: Increase in cleaved caspase-8 protein expression in human AGS cells at 16 uM incubated for 24 hrs by Western blotting method. It counts as functional.
The subject of data set [40] is AGS. In words: Increase in cleaved caspase-9 protein expression in human AGS cells at 16 uM incubated for 24 hrs in presence of 100 ng/ml TRAIL by Western blotting method. It counts as functional.
Data set [41] has as its system AGS. The data set is described as follows: Increase in cleaved caspase-3 protein expression in human AGS cells at 16 uM incubated for 24 hrs in presence of 100 ng/ml TRAIL by Western blotting method. It is filed as functional.
Data set [42] deals with AGS. The data set is described as follows: Inhibition of TRAIL-resistance in human AGS cells assessed as inhibition of cell viability at 24 uM incubated for 24 hrs in presence of 100 ng/ml TRAIL by FMCA method relative to TRAIL alone. It is filed as functional.

In the case of `CC(O)CCC1=CC[C@H]2[C@H](C[C@@H]1C)OC(=O)[C@H]2C` (stereo partly drawn), the figures for the “inhibition (INH)” value in data set [1], in [2] and in data set [3] were 34%, 30% and 51%, respectively.

Turning to `C=C1C(=O)O[C@H]2C[C@H](C)C(CCC(C)=O)=CC[C@H]12`, the Activity result was “Dose-dependent effect” in data set [4]; “Dose-dependent effect” in [5]; “Dose-dependent effect” in [6]; 20% in data set [7]; 65% in [8]; 100% in [12]. Moreover, the Activity result in [13] was “Dose-dependent effect”; in [14], 100%; in data set [18], “tde”; in data set [19] it was “tde”; in data set [20], “Dose-dependent effect”; in [21] it was “Non-toxic”. Further, the Activity entry in data set [22] was “Dose-dependent effect”; in data set [23], 100%; in data set [25] it was “Dose-dependent effect”; in data set [26], 10%; in [27], “Dose-dependent effect”; in data set [28], 25%. For the same molecule, the Activity in data set [29] was 20%; in data set [30], “Dose-dependent effect”; in data set [31], 20%. For the same molecule, the inhibition entry in data set [9], in data set [11], in data set [17] and in [24] was “Active” throughout. In addition, the “inhibition (INH)” value in data set [10] turned out to be 24%; in data set [15], 32%; in data set [16] it was 44%.

With `COc1ccc(C(=O)O[C@@H]2C=C(C)CC[C@@]3(O)[C@@H](C(C)C)CC[C@]23C)cc1`, the Activity entry in [4] is “Dose-dependent effect”; in data set [5], “Dose-dependent effect”; in data set [6], “Dose-dependent effect”; in [32], 15%; in data set [33] it was 50%; in [34] it was 5%. For the same molecule, the Activity result is “Dose-dependent effect” in data set [13]; 100% in data set [35]; 20% in [37]; “Dose-dependent effect” in data set [20]; “Dose-dependent effect” in data set [22]; 70% in [38]. The Activity entry was “Dose-dependent effect” in [25]; “Dose-dependent effect” in data set [27]; 10% in [39]; 100% in data set [40]; 100% in data set [41]; “Dose-dependent effect” in [30]. For the same molecule, the “inhibition (INH)” value in data set [16] came out at 15%; in [36], 61%; in [42], 56%.

For the molecule `C=C1C(=O)O[C@H]2C[C@H](C)C(CCC(C)O)=CC[C@H]12` (stereo partly drawn), the “inhibition (INH)” value in data set [16] is given as 23%; in [36] it was 48%; in data set [42] it was 35%.

With `CC(=O)CCC1=CC[C@H]2[C@H](C[C@@H]1C)OC(=O)[C@H]2C`, the “inhibition (INH)” value in data set [1] is recorded as 36%; in [2], 19%; in data set [3], 61%.

The values are drawn from ChEMBL document CHEMBL3593219, “Sesquiterpenes with TRAIL-resistance overcoming activity from Xanthium strumarium” (Bioorg Med Chem, 2015).
